Measured values from patent EP0615449B1, “USE OF FLAVINE DERIVATIVES IN THE PRODUCTION OF MEDICO-SURGICAL SANITARY ARTICLES AND SANITARY ARTICLES SO OBTAINED” (BERQUE, Jean, priority 1992, dated 1994).

Columns and labels:
rougeole = details: traitement par la vitamine A, AFRIQUE DU SUD; cited from earlier work
Herpès génital = experiment: Clinical observation, intravenous vitamin B2 in a patient with recurrent genital herpes; format: in vivo; details: récurrence importante d'un Herpès génital; voie intra-veineuse, injection unique de 20 mg par jour
Text: (§1) L'idée de départ découlait donc de constatations expérimentales concernant la photosynthèse protéique à l'échelle animale et la photosynthèse virale. On a donc utilisé initialement la vitamine B2 en fonction de ses propriétés d'absorption de la lumière avec l'idée d'interposer un écran photoprotecteur entre le rayonnement solaire UV parvenant à l'organisme et les virus HIV et HSV dont les patients étaient porteurs. Ce concept a été formulé dans le but d'"éteindre" ces virus dont il semblait, en fonction des hypothèses émises, que le rayonnement ultra-violet activait tant leur synthèse que leur replication. Les effets cliniques spectaculaires et très rapidement obtenus ont confirmé l'hypothèse de départ. C'est par la suite que le Demandeur s'est rendu compte qu'outre les propriétés photoprotectrices de la vitamine B2, la formule biochimique diphosphonucléotidique de son métabolite actif, le FAD, jouait également un rôle important.

[1] = test system: cellules CEM-SS infectées par HIV1; experiment: In vitro anti-viral test on HIV1-infected CEM-SS cells (Institut de Virologie, Strasbourg), read out as reverse transcriptase inhibition; format: cell-based; details: dilution au 1/5000è
Text: Début 1992, un test "in vitro" a été effectué par l'Institut de Virologie de la Faculté de Strasbourg. Le test est positif à la dilution au 1/5000è sur les cellules CEM-SS infectées par HIV1; l'effet anti-viral est objectivé par une inhibition de la transcriptase reverse supérieure à 50%.

[2] = lait exposé à la lumière, même dans un emballage transparent; cited from earlier work
HIV [3] = experiment: Clinical observation, intravenous vitamin B2 in an AIDS patient (stage IV); format: in vivo; details: malade sidéen stade IV; voie intra-veineuse, injection unique de 20 mg par jour
Text: as §1

VIH = details: cited from earlier work
[4] = vulcanisation à chaud du latex; cited from earlier work
[5] = Cytotoxicity observed in the in vitro tests of FAD; format: cell-based
HIV [6] = experiment: In vitro antiviral tests of FAD compared with AZT and DDI; format: cell-based

In the case of CC1=C(/C=C/C(C)=C/C=C/C(C)=C/CO)C(C)(C)CCC1 [vitamine A], the “amélioration de la rougeole” value (rougeole) is given as “amélioration notable”.
With Cc1cc2nc3c(=O)[nH]c(=O)nc-3n(C[C@H](O)[C@H](O)[C@H](O)CO)c2cc1C [vitamine B2, Riboflavine] the effets cliniques (Herpès génital) was “résultats spectaculaires”, the “inhibition de la transcriptase reverse” value [1] was > 50% and the “test "in vitro" (effet anti-viral)” value [1] was “positif”. The “Riboflavine détruite” value [2] was 85% and the effets cliniques (HIV [3]) was “résultats spectaculaires”.
For acides biliaires, the “activité anti-VIH in vitro” value (VIH) is given as “actifs in vitro sur le VIH”.
For C=CC1=C(C)c2cc3[n-]c(cc4[n-]c(cc5nc(cc1n2)C(C)=C5C=C)c(C)c4CCC(=O)O)c(CCC(=O)O)c3C.[Fe+2] [Hème], the “activité anti-VIH in vitro” value (VIH) is listed as “exerce une activité anti-VIH in vitro”.
For Cc1cc2nc3c(=O)[nH]c(=O)nc-3n(C[C@H](O)[C@H](O)[C@H](O)COP(=O)(O)OP(=O)(O)OC[C@H]3O[C@@H](n4cnc5c(N)ncnc54)[C@H](O)[C@@H]3O)c2cc1C [FAD, flavine -adenine dinucleotide], the stabilité thermique [4] is given as “thermostables”, the cyto-toxicité [5] is given as “sans aucune cyto-toxicité” and the activité in vitro (HIV [6]) is given as “aussi actif in vitro que l'AZT et plus actif que le DDI”.
For N[C@@H](CCC(=O)N[C@@H](CS)C(=O)NCC(=O)O)C(=O)O [glutathion], the “activité anti-VIH in vitro” value (VIH) is given as “exerce une activité anti-VIH in vitro”.
